For data set [1], the target named is T1, streptavidin beads (Streptomyces avidinii, UniProt P22629).
T1 construct: purchased Invitrogen
In words: Capture of 125I-Rtx-TCO-biotin with streptavidin beads (gamma counting). It is filed as binding. The settings on record: 1 hour incubation. The protocol: Rituximab (Rtx, 100 μg in 200 μL PBS, Roche) was radiolabeled with ^125I (Perkin Elmer) in a Pierce iodination tube (5 min incubation at room temperature) followed by size exclusion (SEC) purification (2 times, 0.5 mL Zeba desalting spin cartridge, 40 kDa MWCO, Pierce). Subsequently, non-radioactive Rtx was added to the solution (making 1 mg total Rtx), the pH was adjusted to 9 with 1 M sodium carbonate buffer and TCO-2-Biotin (3 eq., 5 mg/mL in DMSO) was added. The reaction mixture (200 μL) was incubated for 2 hours at 37° C. (350 rpm), purified once by SEC cartridge and then analyzed by SEC HPLC on an Agilent 1200 system equipped with a Gaby radioactive detector and UV detector and connected to a BioSep-SEC-S-3000 column (300×7.8 mm, 5 μm particles, Phenomenex) which was eluted at 1 mL/min with 0.1 M phosphate 0.15 M NaCl pH 6.8.
Subsequently, various amounts of ^125I-Rtx-TCO-biotin were combined with 1 mg streptavidin beads (Dynabeads MyOne Streptavidin Cl, Invitrogen) in 200 μL PBS and incubated for 1 hour at room temperature on a roller bench, to avoid bead settling. After incubation, the supernatants were removed and the beads were washed extensively with PBS.

Data set [2] can be described thus: Binding of TCO-protected doxorubicin to beads coated with BSA-tetrazine and doxorubicin release (HPLC). The settings on record: for time to complete release of free doxorubicin from the beads / release of free doxorubicin from the beads: PBS, 37° C.; for release of free doxorubicin from the beads: after 3 h. As to the method:
Tetrazine functionalization of a BSA-coated particle has been described in J. Nucl. Med. 2013, 54, 1989-1995. Briefly, a solution of BSA (bovine serum albumin; 0.7 mg) in PBS was mixed with a 10 mg/mL solution of a bis-pyridyl-tetrazine-NHS derivative in DMF (35 μL, 30 eq. with respect to BSA) and the pH was adjusted to 9.0 with 1 M sodium carbonate buffer. The solution (125 μL total) was incubated at room temperature for 30 min then the unreacted tetrazine was removed from the solution by using a Zeba desalting spin column (7 kDa MW cut-off) pre-washed with PBS. UV measurements confirmed the presence of 12 tetrazine moieties per BSA molecule.
The eluate containing BSA-tetrazine in PBS was added to a 350 μL suspension of polystyrene beads (Polybeads, 0.5 μm, Polysciences) in H2O and the resulting suspension was incubated at +4° C. for 1 h on an end-over-end rotating mixer (10 rpm). After incubation, the suspension of beads coated with BSA-tetrazine was centrifuged at 12,000 rpm for 4 min. The supernatant was carefully removed and the pellet was resuspended in 1.5 mL PBS by using a tip sonicator at low power (Sonics VibraCell, 4×5 sec pulses, 40% of power). The centrifuging-resuspension cycle was repeated 2 times, after which the bead pellet was resuspended in 200 μL PBS and reacted with 7 nmol of TCO-protected doxorubicin (TCO-3-Doxorubin, 1 mM in DMSO).
After 5 min incubation at 37° C. in a thermomixer (350 rpm), the beads were removed by centrifugation and the supernatant was analyzed by HPLC on an Agilent Techologies system (1100 series) equipped with a fluorescence detector with λhex=485 nm and λem=590 nm. The sample was loaded on an Eclipse XDB-C18 column (5 μm, 4.6×150 mm^2, Agilent) which was eluted isocratically with 30% (v/v) acetonitrile in H2O containing 0.1% TFA (v/v) at 1 mL/min. HPLC analysis of the supernatant confirmed that ca. 75% of TCO-doxorubicin was bound to the beads.
The bead pellet was resuspended in 1.5 mL PBS and centrifuged twice to eliminate unbound TCO-doxorubicin. Subsequently, the beads were resuspended in 400 μL PBS and incubated at 37° C. At various times, aliquots of the supernatant were analyzed by HPLC. The chromatographic profiles (FIG. 2) show release of free doxorubicin (Rt=6.2 min) from the beads with time (>45% after 3 h; complete within 24 h).

Data set [3] can be described thus: Deprotection of N-TCO protective group (Example 6, 1H-NMR). As to conditions: chloroform with trifluoroacetic acid; 3,6-dimethyl-1,2,4,5-tetrazine (8); 20° C. for 40 min. The protocol: (N-TCO-6-aminohexyl) phenylcarbamate (5.61 mg; 1.44*10^−5 mol) was dissolved in chloroform (0.6 mL) and trifluoroacetic acid (20 mg; 1.75*10^−4 mol) was added. Subsequently, a solution of 3,6-dimethyl-1,2,4,5-tetrazine (8, 1.90 mg; 1.73*10^−5 mol) in chloroform (0.1 mL) was added. The pink, homogeneous mixture was stirred at 20° C. for 40 min. According to ^1H-NMR, more than 95% was deprotected. The reaction mixture was washed with aqueous potassium carbonate (0.5 mL 0.4 M), dried over sodium sulfate, filtered, and evaporated to dryness. The crude product was purified by preparative RP-HPLC and isolated by lyophilization to yield a white powder (2.31 mg; 68%). ^1H-NMR (DMSO-d6): δ=9.60 (s, 1H), 7.46 (d, 2H), 7.26 (t, 2H), 6.97 (t, 1H), 4.06 (t, 2H), 2.60 (t, 2H), 1.62 (m, 2H), 1.33 (m, 6H) ppm. ^13C-NMR (CDCl3): δ=153.6, 139.2, 128.7, 122.2, 118.1, 73.8, 64.1, 41.5, 33.3, 28.6, 26.1, 25.4 ppm. FT-IR (ATR): v=3343, 2939, 1707, 1542, 1448, 693 cm^−1. LC-MS: m/z=+237.17 [M+H]+(calcd 236.15 for C13H20N2O2).

The nature of data set [4]: Testing the feasibility of the deprotection of TCO compounds upon reaction with tetrazine. As to conditions: 20° C.
Assay in data set [5]: as above
As to the method: (§1) The feasibility to use the TCO group as a protective group in chemistry was studied by testing the stability of a range of TCO derivatives as model compounds under various conditions, and following the deprotection upon reaction with a tetrazine derivative under these conditions.
Typical Example for Testing the Feasibility of the Deprotection
The TCO stock solution (10 μL 25 mM in acetonitrile; 2.5*10^−7 mol) was added to a solution of the specific condition (100 μL). A solution of 3,6-dimethyl-1,2,4,5-tetrazine (8, 20 μL 25 mM in acetonitrile; 5.0*10^−7 mol) was added, and the mixture was stirred at the specific condition for a certain amount of time. The reaction was monitored by HPLC-MS/PDA analysis and/or GC-MS analysis, and the percentage of deprotection was estimated.
(§2) A) in acetonitrile with 5 equivalents of pyridine per TCO at 20° C.
(§3) B) in acetonitrile with 5 equivalents of DIPEA per TCO at 20° C.
(§4) C) in acetonitrile with 5 equivalents of piperidine per TCO at 20° C.
(§5) D) in acetonitrile with 5 equivalents of n-butylamine per TCO at 20° C.
(§6) E) in acetonitrile with 5 equivalents of 2-mercaptoethanol per TCO at 20° C.
(§7) F) in tetrahydrofuran with 5 equivalents of triphenylphosphine per TCO at 20° C.
(§8) G) in acetonitrile with 5 equivalents of DCC per TCO at 20° C.
(§9) H) in acetonitrile with 5 equivalents of PyBOP per TCO at 20° C.
(§10) I) in acetonitrile with 1 v % of formic acid at 20° C.
(§11) J) in chloroform at 20° C.
(§12) K) in chloroform with 1 v % of formic acid at 20° C.
(§13) L) in chloroform with 1 v % of trifluoroacetic acid at 20° C.
(§14) M) in chloroform with 10 v % of trifluoroacetic acid at 20° C.
(§15) N) in chloroform with 33 v % of trifluoroacetic acid at 20° C.
(§16) Z) in 25% acetonitrile in water at 20° C.

Data set [6] in a line: Testing the stability of a TCO compound under chemical conditions (HPLC-MS/PDA, GC-MS). It counts as physicochemical. As to the method: as §1
Typical Example for Testing the Stability of a TCO Compound
The TCO stock solution (10 μL 25 mM; 2.5*10^−7 mol) was added to a solution of the specific condition (100 μL). The mixture was stirred at the specific condition for a certain amount of time, and then the fate of the TCO compound was monitored by HPLC-MS/PDA analysis and/or GC-MS analysis, and an estimation of its stability was made.
as §2, §3, §4, §5, §6, §7, §8, §9, §10, §11, §12, §13, §14, §15, §16

A short description of data set [7]: TCO-doxorubicin with uncoated and unmodified beads (comparison). The settings on record: same conditions.
Where [8] appears, read: 0.1 M HCOOH buffer, pH = 2.0 for 2 day, 20° C.
The mark [9] stands for this setting: 0.1 M NH3 buffer, pH = 11 for 5 day, 20° C.
[10] abbreviates: 0.1 M NH4OAc buffer, pH = 7.0 for 5 day, 20° C.
The mark [11] stands for this setting: 0.1 M NH4OAc buffer, pH = 8.0 for 8 day, 20° C.
Setting [12] is: 0.1 M NH4OAc buffer, pH = 10.0 for 8 day, 20° C.
Where [13] appears, read: 10% MeCN in H2O at 70° C. for 5 day.
The mark [14] stands for this setting: with 5 eq. of DIPEA in MeCN for 16 h, 20° C.
Setting [15] is: with 5 eq. of PyBOP in MeCN for 16 h, 20° C.

Like-named read-outs stand apart in the source and are kept apart here.

T1 sequence (P22629 25-183): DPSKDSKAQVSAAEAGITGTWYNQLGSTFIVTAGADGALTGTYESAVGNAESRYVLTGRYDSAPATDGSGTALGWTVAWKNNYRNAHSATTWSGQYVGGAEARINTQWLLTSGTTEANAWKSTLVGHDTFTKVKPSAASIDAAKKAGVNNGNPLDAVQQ

Regarding “^125I-Rtx: Rituximab (Rtx, Roche) radiolabeled with 125I”, the “radioactivity bound to streptavidin beads” value in data set [1] is “almost no radioactivity was bound”.

As for `COc1cccc2c1C(=O)c1c(O)c3c(c(O)c1C2=O)C[C@@](O)(C(=O)CO)C[C@@H]3O[C@H]1C[C@H](N)[C@H](O)[C@H](C)O1` [doxorubicin, reference compound], in data set [2], the “time to complete release of free doxorubicin from the beads” value is no more than 24 h and the “release of free doxorubicin from the beads” value was greater than 45%.

Regarding `O=C(Nc1ccccc1)OCCCCCCNC(=O)OC1/C=C/CCCCC1` (centres unmarked) [(N-TCO-6-aminohexyl) phenylcarbamate], the “deprotected according to 1H-NMR” value in data set [3] is recorded as “more than 95%”.

With `COc1cc(COC(=O)NC2CC/C=C/CCC2N)cc(OC)c1OC` (centres unmarked), the “Deprotection (%)” value was found to be 25% in data set [4] (0.1 M NH4OAc buffer, pH = 9.0 for 8 day); 0% in data set [4] (10% MeCN in H2O for 5 day); 0% in data set [5] (setting [8]); 87% in data set [5] (setting [9]); 0% in data set [5] (setting [10]); 0% in data set [5] (setting [11]). Besides, the “Deprotection (%)” value in data set [5] (setting [12]) was 81%; in data set [5] (setting [13]), 50%. The “Stability of TCO” value in data set [6] (setting [8]) is given as “stable”; in data set [6] (setting [10]) it was “stable”; in data set [6] (setting [11]), “stable”; in data set [6] (0.1 M NH4OAc buffer, pH = 9.0 for 8 day, 20° C.), “stable”; in data set [6] (setting [12]), “stable”; in data set [6] (10% MeCN in H2O for 5 day, 20° C.), “stable”. Moreover, the “Stability of TCO: cyclization” value in data set [6] (setting [9]) and in data set [6] (setting [13]) was less than 5% in each case.

For `NC1CC/C=C/CCC1NC(=O)Oc1ccccc1` (centres unmarked), the “Deprotection (%)” value is reported as 33.9% in data set [4] (with 5 eq. of HCOOH in MeCN for 16 h), 71.7% in data set [4] (with 5 eq. of pyridine in MeCN for 16 h), 98.8% in data set [5] (setting [14]) and 24.4% in data set [5] (setting [15]). Moreover, the half-life turned out to be 80 h in data set [6] (0.1 M NH4OAc buffer, pH = 7.0, 20° C., read-out: Stability of TCO, t1/2) and 17 h in data set [6] (0.1 M NH4OAc buffer, pH = 8.0, 20° C., read-out: Stability of TCO, t1/2). In data set [6] (0.1 M NH4OAc buffer, pH = 9.0, 20° C., read-out: Stability of TCO, t1/2), the half-life at 2.3 mM was determined as 5.3 h. The “Stability of TCO: cyclization” value in data set [6] (setting [14]) is 6.7%; in data set [6] (with 5 eq. of HCOOH in MeCN for 16 h, 20° C.) it was 1.9%; in data set [6] (setting [15]), 5.9%; in data set [6] (with 5 eq. of pyridine in MeCN for 16 h, 20° C.), 2.6%.

On to `COc1cccc2c1C(=O)c1c(O)c3c(c(O)c1C2=O)C[C@@](O)(C(=O)CO)C[C@@H]3O[C@H]1CC(NC(=O)OCc2ccc(OC(=O)N[C@@H]3CC/C=C/CC[C@@H]3N)cc2)[C@H](O)C(C)O1` (some centres unmarked) [TCO-3-Doxorubicin], for which the “TCO-doxorubicin bound to the beads” value in data set [2] (BSA-tetrazine coated beads, 5 min incubation at 37° C., HPLC of supernatant) was “ca. 75%”. Also, in data set [2], the “time to complete release of free doxorubicin from the beads” value is listed as no more than 24 h and the “release of free doxorubicin from the beads” value is recorded as greater than 45%. For the same compound, the “non-specific proDox adsorption on the bead surface” value in data set [7] is greater than 95%.

For the origin of these results see patent US10927139B2, “Chemically cleavable group” (Tagworks Pharmaceuticals B.V., priority 2012, dated 2021).
